Measured values published in patent publication US6737383B1, “Herbicidal oxadiazolidines” (priority 1999, dated 2004).

Experiments:
bedstraw = test: Test B pre/postemergence bedstraw; type: in vivo, Galium aparine
Summary of the method: (§1)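 Test chemicals in a non-phytotoxic solvent mixture with surfactant were sprayed preemergence onto planted seeds and postemergence onto plants 2 to 18 cm tall (1- to 4-leaf stage). After twelve to sixteen days in a greenhouse, injury was visually rated against untreated controls from 0 (no effect) to 10 (complete control).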

blackgrass = test: Test B pre/postemergence blackgrass; type: in vivo, Alopecurus myosuroides
Summary of the method: as §1

surinam grass = test: Test B pre/postemergence surinam grass; type: in vivo, Brachiaria decumbens
Summary of the method: as §1

cocklebur = test: Test B pre/postemergence cocklebur; type: in vivo, Xanthium strumarium
Summary of the method: as §1

corn = test: Test B pre/postemergence corn; type: in vivo, Zea mays
Summary of the method: as §1

crabgrass = test: Test B pre/postemergence crabgrass; type: in vivo, Digitaria sanguinalis
Summary of the method: as §1

giant foxtail = test: Test B pre/postemergence giant foxtail; type: in vivo, Setaria faberii
Summary of the method: as §1

morningglory = test: Test B pre/postemergence morningglory; type: in vivo, Ipomoea hederacea
Summary of the method: as §1

soybean = test: Test B pre/postemergence soybean; type: in vivo, Glycine max
Summary of the method: as §1

velvetleaf = test: Test B pre/postemergence velvetleaf; type: in vivo, Abutilon theophrasti
Summary of the method: as §1

wheat = test: Test B pre/postemergence wheat; type: in vivo, Triticum aestivum
Summary of the method: as §1

wild oat = test: Test B pre/postemergence wild oat; type: in vivo, Avena fatua
Summary of the method: as §1

purple nutsedge = test: Test B pre/postemergence purple nutsedge; type: in vivo, Cyperus rotundus
Summary of the method: as §1

rice = test: Test B flood test rice; type: in vivo, Oryza sativa
Summary of the method: (§2)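 Read-out is a visual response score from 0 (no effect) to 10 (complete control), assigned by comparison with untreated controls. Treatment was applied at the 2-leaf stage, and plants stayed in the greenhouse for twelve to sixteen days before scoring.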

smallflower flatsedge = test: Test B flood test smallflower flatsedge; type: in vivo, Cyperus difformis
Summary of the method: as §2

duck salad = test: Test B flood test duck salad; type: in vivo, Heteranthera limosa
Summary of the method: as §2

bamyardgrass = test: Test B flood test barnyardgrass; type: in vivo, Echinochloa crus-galli
Summary of the method: as §2

[1] = Postemergence, Rate 62 g/ha, scale 0 to 10, 0 is no effect, 10 is complete control
[2] = Postemergence, Rate 250 g/ha, scale 0 to 10, 0 no effect, 10 complete control
[3] = Preemergence, Rate 62 g/ha, scale 0 to 10 (0 no effect, 10 complete control)
[4] = Preemergence, Rate 125 g/ha, scale 0 to 10 (0 no effect, 10 complete control)
[5] = Preemergence, Rate 250 g/ha, scale of 0 to 10 where 0 is no effect and 10 is complete control
[6] = Preemergence, Rate 500 g/ha, scale 0 (no effect) to 10 (complete control)
[7] = Rate 125 g/ha, Postemergence, scale 0 to 10, 0 no effect, 10 complete control
[8] = Rate 500 g/ha, Postemergence, scale 0 to 10, 0 no effect, 10 complete control
[9] = Rate 1000 g/ha, Preemergence, scale 0 to 10 (0 no effect, 10 complete control)
[10] = Postemergence, Rate 125 g/ha, scale of 0 to 10 where 0 is no effect and 10 is complete control
[11] = Postemergence, Rate 1000 g/ha, scale 0 to 10 (0 no effect, 10 complete control)
[12] = Rate 62 g/ha, Postemergence, scale of 0 to 10 where 0 is no effect and 10 is complete control
[13] = Rate 250 g/ha, Postemergence, scale 0 to 10, 0 is no effect, 10 is complete control
[14] = Preemergence, Rate 125 g/ha, 0 is no effect, 10 is complete control
[15] = Postemergence (flood test species), Rate 125 g/ha, scale of 0 to 10 where 0 is no effect and 10 is complete control
[16] = Rate 62 g/ha, Postemergence section, flood test species, scale of 0 to 10 where 0 is no effect and 10 is complete control
[17] = Rate 250 g/ha, Postemergence (flood test), scale 0 to 10, 0 is no effect, 10 is complete control
[18] = Rate 500 g/ha, listed under Postemergence (flood test species), scale 0 to 10, 0 no effect, 10 complete control
[19] = flood test, listed under Postemergence, Rate 250 g/ha, scale 0 to 10, 0 no effect, 10 complete control

SMILES: CC(C)N(C(=O)n1oc(=O)n(C2CCCCC2C(F)(F)F)c1=O)c1ccc(F)cc1 (stereo not shown) [Compound 99]
- Bedstraw plant response rating (bedstraw; [1]): 3
- Bedstraw plant response rating (bedstraw; [2]): 8
- Bedstraw plant response rating (bedstraw; [3]): 0
- Plant response rating, Bedstraw (bedstraw; [4]): 0
- Plant response rating, Bedstraw (bedstraw; [5]): 0
- Bedstraw plant response rating (bedstraw; [6]): 0
- Bedstraw plant response rating (bedstraw; [7]): 5
- Bedstraw plant response rating (bedstraw; [8]): 8
- Plant response rating, Bedstraw (bedstraw; [9]): 0
- Blackgrass plant response rating (blackgrass; [10]): 3
- Blackgrass plant response rating (blackgrass; [2]): 6
- Blackgrass plant response rating (blackgrass; [11]): 5
- Blackgrass plant response rating (blackgrass; [3]): 0
- Plant response rating, Blackgrass (blackgrass; [4]): 3
- Plant response rating, Blackgrass (blackgrass; [5]): 4
- Blackgrass plant response rating (blackgrass; [6]): 4
- Blackgrass plant response rating (blackgrass; [12]): 3
- Blackgrass plant response rating (blackgrass; [8]): 6
- Plant response rating, Blackgrass (blackgrass; [9]): 7
- B. signalgrass plant response rating (surinam grass; [1]): 0
- B. signalgrass plant response rating (surinam grass; [2]): 0
- B. signalgrass plant response rating (surinam grass; [11]): 4
- B. signalgrass plant response rating (surinam grass; [3]): 0
- Plant response rating, B. signalgrass (surinam grass; [4]): 0
- Plant response rating, B. signalgrass (surinam grass; [5]): 2
- B. signalgrass plant response rating (surinam grass; [6]): 3
- B. signalgrass plant response rating (surinam grass; [7]): 0
- B. signalgrass plant response rating (surinam grass; Rate 500 g/ha, Postemergence, scale of 0 to 10 where 0 is no effect and 10 is complete control): 2
- Plant response rating, B. signalgrass (surinam grass; [9]): 6
- Cocklebur plant response rating (cocklebur; [10]): 2
- Cocklebur plant response rating (cocklebur; [2]): 2
- Cocklebur plant response rating (cocklebur; [11]): 4
- Cocklebur plant response rating (cocklebur; [3]): 0
- Plant response rating, Cocklebur (cocklebur; [4]): 0
- Plant response rating, Cocklebur (cocklebur; [5]): 0
- Cocklebur plant response rating (cocklebur; [6]): 0
- Cocklebur plant response rating (cocklebur; [12]): 0
- Cocklebur plant response rating (cocklebur; [8]): 3
- Plant response rating, Cocklebur (cocklebur; [9]): 7
- Corn plant response rating (corn; [10]): 0
- Corn plant response rating (corn; [2]): 0
- Corn plant response rating (corn; [11]): 0
- Corn plant response rating (corn; [3]): 0
- Plant response rating, Corn (corn; [4]): 0
- Plant response rating, Corn (corn; [5]): 0
- Corn plant response rating (corn; [6]): 0
- Corn plant response rating (corn; [12]): 0
- Corn plant response rating (corn; [8]): 0
- Plant response rating, Corn (corn; [9]): 2
- Crabgrass plant response rating (crabgrass; [10]): 2
- Crabgrass plant response rating (crabgrass; [2]): 4
- Crabgrass plant response rating (crabgrass; [11]): 8
- Crabgrass plant response rating (crabgrass; [3]): 5
- Plant response rating, Crabgrass (crabgrass; [4]): 8
- Plant response rating, Crabgrass (crabgrass; [5]): 10
- Crabgrass plant response rating (crabgrass; [6]): 10
- Crabgrass plant response rating (crabgrass; [12]): 0
- Crabgrass plant response rating (crabgrass; [8]): 8
- Plant response rating, Crabgrass (crabgrass; [9]): 10
- Giant foxtail plant response rating (giant foxtail; [10]): 0
- Giant foxtail plant response rating (giant foxtail; [2]): 2
- Giant foxtail plant response rating (giant foxtail; [11]): 2
- Plant response rating, Giant foxtail (giant foxtail; [4]): 10
- Plant response rating, Giant foxtail (giant foxtail; [5]): 10
- Giant foxtail plant response rating (giant foxtail; [6]): 10
- Giant foxtail plant response rating (giant foxtail; [12]): 0
- Giant foxtail plant response rating (giant foxtail; [8]): 7
- Plant response rating, Giant foxtail (giant foxtail; [9]): 10
- Morningglory plant response rating (morningglory; [10]): 3
- Morningglory plant response rating (morningglory; [2]): 3
- Morningglory plant response rating (morningglory; [11]): 9
- Morningglory plant response rating (morningglory; [3]): 0
- Plant response rating, Morningglory (morningglory; [4]): 0
- Plant response rating, Morningglory (morningglory; [5]): 0
- Morningglory plant response rating (morningglory; [6]): 0
- Morningglory plant response rating (morningglory; [12]): 1
- Morningglory plant response rating (morningglory; [8]): 5
- Plant response rating, Morningglory (morningglory; [9]): 3
- Soybean plant response rating (soybean; [10]): 2
- Soybean plant response rating (soybean; [11]): 3
- Soybean plant response rating (soybean; [3]): 0
- Plant response rating, Soybean (soybean; [4]): 0
- Plant response rating, Soybean (soybean; [5]): 0
- Soybean plant response rating (soybean; [6]): 0
- Soybean plant response rating (soybean; [12]): 2
- Plant response rating, Soybean (soybean; [13]): 3
- Soybean plant response rating (soybean; [8]): 4
- Plant response rating, Soybean (soybean; [9]): 2
- Velvetleaf plant response rating (velvetleaf; [10]): 3
- Velvetleaf plant response rating (velvetleaf; [11]): 7
- Velvetleaf plant response rating (velvetleaf; [3]): 0
- Velvetleaf plant response rating (0 to 10 scale) (velvetleaf; [14]): 0
- Plant response rating, Velvetleaf (velvetleaf; [5]): 0
- Velvetleaf plant response rating (velvetleaf; [6]): 3
- Velvetleaf plant response rating (velvetleaf; [12]): 0
- Plant response rating, Velvetleaf (velvetleaf; [13]): 3
- Velvetleaf plant response rating (velvetleaf; [8]): 5
- Plant response rating, Velvetleaf (velvetleaf; [9]): 0
- Wheat plant response rating (wheat; [10]): 0
- Wheat plant response rating (wheat; [11]): 2
- Wheat plant response rating (wheat; [3]): 0
- Wheat plant response rating (0 to 10 scale) (wheat; [14]): 0
- Plant response rating, Wheat (wheat; [5]): 2
- Wheat plant response rating (wheat; [6]): 2
- Wheat plant response rating (wheat; [12]): 0
- Plant response rating, Wheat (wheat; [13]): 0
- Wheat plant response rating (wheat; [8]): 0
- Plant response rating, Wheat (wheat; [9]): 2
- Wild oats plant response rating (wild oat; [10]): 0
- Wild oats plant response rating (wild oat; [11]): 3
- Wild oats plant response rating (wild oat; [3]): 0
- Wild oats plant response rating (0 to 10 scale) (wild oat; [14]): 3
- Plant response rating, Wild oats (wild oat; [5]): 3
- Wild oats plant response rating (wild oat; [6]): 5
- Wild oats plant response rating (wild oat; [12]): 0
- Plant response rating, Wild oats (wild oat; [13]): 0
- Wild oats plant response rating (wild oat; [8]): 0
- Plant response rating, Wild oats (wild oat; [9]): 7
- Nutsedge plant response rating (purple nutsedge; [10]): 0
- Nutsedge plant response rating (purple nutsedge; [2]): 0
- Nutsedge plant response rating (purple nutsedge; [11]): 0
- Nutsedge plant response rating (purple nutsedge; [3]): 0
- Plant response rating, Nutsedge (purple nutsedge; [4]): 0
- Plant response rating, Nutsedge (purple nutsedge; [5]): 0
- Nutsedge plant response rating (purple nutsedge; [6]): 6
- Nutsedge plant response rating (purple nutsedge; [12]): 0
- Nutsedge plant response rating (purple nutsedge; [8]): 0
- Plant response rating, Nutsedge (purple nutsedge; [9]): 10
- Rice plant response rating (rice; [15]): 0
- Rice plant response rating (rice; [11]): 0
- Rice plant response rating (rice; [16]): 0
- Plant response rating, Rice (rice; [17]): 0
- Rice plant response rating (rice; [18]): 0
- S. Flatsedge plant response rating (smallflower flatsedge; [15]): 0
- S. Flatsedge plant response rating (smallflower flatsedge; [11]): 3
- S. Flatsedge plant response rating (smallflower flatsedge; [16]): 0
- Plant response rating, S. Flatsedge (smallflower flatsedge; [17]): 0
- S. Flatsedge plant response rating (smallflower flatsedge; [18]): 2
- Ducksalad plant response rating (duck salad; [15]): 0
- Ducksalad plant response rating (duck salad; [11]): 3
- Ducksalad plant response rating (duck salad; [16]): 0
- Ducksalad plant response rating (duck salad; [18]): 2
- Ducksalad plant response rating (duck salad; [19]): 2
- Barnyardgrass plant response rating (bamyardgrass; [1]): 0
- Barnyardgrass plant response rating (bamyardgrass; [11]): 8
- Barnyardgrass plant response rating (bamyardgrass; Rate 125 g/ha, Postemergence section (flood test species), scale 0 to 10, 0 no effect, 10 complete control): 0
- Barnyardgrass plant response rating (bamyardgrass; [18]): 5
- Barnyardgrass plant response rating (bamyardgrass; [19]): 0
